Results published in the supplement of paper PMC10307832.

How the values were obtained:
Test in all cases: relative viability (nuclei count vs DMSO), 5 days (fraction); higher = more cells survive
Lestaurtinib + AZD7762 = compound: C[C@]12O[C@H](C[C@]1(O)CO)n1c3ccccc3c3c4c(c5c6ccccc6n2c5c31)CNC4=O [Lestaurtinib] + NC(=O)Nc1cc(-c2cccc(F)c2)sc1C(=O)N[C@H]1CCCNC1 [AZD7762] (partner 0.2 µM)
In short: (§1)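 Values are medians from duplicate plates. Each reflects relative viability, defined as the nuclei count of treated wells over that of vehicle wells. Lung cancer cell lines in 1536-well plates were pin-tool dosed one day after seeding with one drug alone or with a fixed anchor-drug dose plus five library-drug doses (not always all listed) in √10 steps, then fixed, stained and imaged at 4× after 5 days.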

[1] = compound: C[C@]12O[C@H](C[C@]1(O)CO)n1c3ccccc3c3c4c(c5c6ccccc6n2c5c31)CNC4=O [Lestaurtinib] + CC1(C)CCC(c2ccc(Cl)cc2)=C(CN2CCN(c3ccc(C(=O)NS(=O)(=O)c4ccc(N[C@H](CCN5CCOCC5)CSc5ccccc5)c(S(=O)(=O)C(F)(F)F)c4)cc3)CC2)C1 [Navitoclax] (partner 0.5 µM)
In short: as §1

[2] = compound: C1/C(=C\C2=CC=CS2)/C(=O)/C(=C/C3=CC=CS3)/C1 + CC(=O)c1c(C)c2cnc(Nc3ccc(N4CCNCC4)cn3)nc2n(C2CCCC2)c1=O [Palbociclib] (partner 0.5 µM)
In short: as §1

TPCA-1 + Tozasertib = compound: C1=CC(=CC=C1C2=CC(=C(S2)NC(=O)N)C(=O)N)F [TPCA-1] + Cc1cc(Nc2cc(N3CCN(C)CC3)nc(Sc3ccc(NC(=O)C4CC4)cc3)n2)n[nH]1 [Tozasertib] (partner 0.1 µM)
In short: as §1

Cell Line	relative viability (Lestaurtinib + AZD7762; first compound 0.005 µM)	relative viability (Lestaurtinib + AZD7762; first compound 0.01581 µM)	relative viability (Lestaurtinib + AZD7762; first compound 0.05 µM)	relative viability (Lestaurtinib + AZD7762; first compound 0.1581 µM)	relative viability (Lestaurtinib + AZD7762; first compound 0.5 µM)	relative viability ([1]; first compound 0.005 µM)	relative viability ([1]; first compound 0.01581 µM)	relative viability ([1]; first compound 0.05 µM)	relative viability ([1]; first compound 0.1581 µM)	relative viability ([1]; first compound 0.5 µM)	relative viability ([2]; first compound 0.2 µM)	relative viability ([2]; first compound 0.6325 µM)	relative viability ([2]; first compound 2 µM)	relative viability ([2]; first compound 6.325 µM)	relative viability ([2]; first compound 20 µM)	relative viability (TPCA-1 + Tozasertib; first compound 0.04 µM)	relative viability (TPCA-1 + Tozasertib; first compound 0.1265 µM)	relative viability (TPCA-1 + Tozasertib; first compound 0.4 µM)	relative viability (TPCA-1 + Tozasertib; first compound 1.265 µM)	relative viability (TPCA-1 + Tozasertib; first compound 4 µM)
HARA	0.287	0.392	0.282	0.294	0.307	1.15	1.18	1.21	1.07	0.196	0.278	0.238	0.337	0.196	0.32	0.136	0.118	0.0913	0.0917	0.0916
HCC-15	1.25	1.36	0.937	1.18	0.188	0.786	0.883	0.668	0.653	0.467	0.721	0.734	0.824	0.682	0.73	0.413	0.438	0.338	0.276	0.15
HCC-44	0.949	1.08	1.09	1.14	0.75	0.88	1.06	0.925	1.12	0.62	0.984	1	0.926	0.862	1.04	1.07	0.937	0.889	–	0.294
HCC-78	0.555	0.662	0.517	0.516	0.333	0.897	0.906	0.533	0.333	0.211	0.486	0.457	0.534	–	0.451	0.406	0.413	0.427	0.477	0.205
HCC-366	0.315	0.305	0.339	0.447	0.556	1.1	1.11	0.977	1.56	0.581	0.413	0.388	0.454	0.358	0.43	0.107	0.135	0.0742	0.0631	0.0314
HCC-827	0.198	0.196	0.219	0.189	0.18	1.07	1.01	0.98	0.847	0.604	0.487	0.481	0.522	0.463	0.525	0.472	0.42	0.389	0.443	0.272
HOP-62	0.56	0.657	0.323	0.609	0.313	0.979	1.07	0.657	0.916	0.988	0.486	0.499	0.465	0.41	0.473	0.368	0.367	0.392	0.292	0.27
LC-2-ad	0.892	0.908	0.558	0.409	0.225	0.344	0.402	0.201	0.137	0.107	0.526	0.483	0.488	0.333	0.481	0.514	0.41	0.469	0.459	0.315
LCLC-97TM1	0.167	0.279	0.166	0.175	0.114	0.636	0.564	0.246	0.14	0.249	0.255	0.228	0.203	0.21	0.196	0.242	0.261	0.223	0.185	0.117
LK-2	0.388	0.523	0.272	0.276	0.135	1.01	0.838	0.673	0.374	0.169	0.639	–	0.706	0.787	0.732	0.167	0.176	0.187	0.172	0.16
LOU-NH91	0.688	0.754	0.573	0.524	0.378	0.698	0.583	0.438	0.371	0.272	0.564	0.584	0.523	0.507	0.55	0.769	0.57	0.639	0.602	0.423
LU99A	0.362	0.348	0.34	0.277	0.158	0.707	0.72	0.373	0.378	0.211	0.402	0.395	0.481	0.368	0.38	0.276	0.276	0.226	0.242	0.199
LXF-289	1.12	1.14	0.801	0.864	0.17	0.93	0.986	0.742	0.707	0.161	0.648	0.615	0.567	0.577	0.56	0.248	0.203	0.201	0.169	0.122
NCI-H23	0.213	0.257	0.227	0.246	0.203	0.862	0.84	0.918	0.784	0.422	0.553	0.557	0.551	0.478	0.462	0.303	0.348	0.332	0.308	0.248
NCI-H322M	0.511	0.538	–	0.517	0.479	1.28	0.977	0.563	0.463	0.461	0.517	0.508	0.529	0.431	0.468	0.523	0.464	0.462	0.416	0.303
NCI-H441	1.17	1.39	1.04	1.01	0.743	0.48	0.575	0.571	0.448	0.313	0.242	0.217	0.234	0.197	0.25	0.946	0.632	0.506	0.379	0.28
